36 molecules from patent US7291629B2, “Neurotrophin antagonist compositions” (Painceptor Pharma Corporation, priority 1996, dated 2007) can be followed below.

The first experiment has as its system p75 and trkA receptors. Kind of experiment: Binding of [125I]NGF to PC12 cells in the presence and absence of BDNF. To be noted: 100 uM compound, 0.5 nM 125I-NGF. How it is done:
The ability of the compounds of Formula I to antagonize NGF interaction with the p75 and trkA receptors was determined as follows.
NGF was labelled using the Lactoperoxidase labelling method (Sutter et al., J. Biol. Chem., 1979) and the labelled NGF was separated from radiolabelling agents and free iodide using a PD-10 Sephadex G-25 column.
PC12 cells were grown in RPMI with 10% heat inactivated donor horse serum and 5% fetal calf serum. Cells were harvested for binding by washing off the media with calcium-magnesium free balanced salt solution (Gey's solution) and incubated in 5 ml Gey's solution at 37° C. for 15 minutes. Cells were pelleted by centrifugation and suspended in Hepes-Krebs Ringer buffer (HKR) (10 mM Hepes pH7.35, containing 125 mM NaCl, 4.8 mM KCl, 1.3 mM CaCl2, 1.2 mM MgSO4, 1.2 mM KH2PO4, 1 mg/ml BSA and 1.0 mg/ml glucose) at a concentration of 4×10^6/ml and kept on ice. (C) NGF Binding The reaction was performed in a 96 well plate. Suspended cells (150 ul, […]) were added to ^125I-NGF (final concentration of 0.5 nM) and the competing compound of Formual I in a final volume of 300 ul of HKR buffer. The plates were incubated with shaking for 2 hr at 4° C. At the end of the incubation, 100 ul aliquots of the reaction sample were added to 400 ul microcentrifuge tubes containing 200 ul of 10% glycerol in HKR buffer. The tubes were centrifuged for 1 minute at ˜5000 rpm and the tip containing the cell pellet was cut off. Radioactivity bound to the cells was determined by measuring the ^125I-NGF associated with each pellet in a gamma counter. Specific binding is calculated as the difference between the amount of ^125I-NGF bound in the absence (total) and presence (NSB) of 50 nM unlabeled NGF. TrkA binding is determined similarly except 10 nM BDNF is added to all reactions. Table 1 summarizes the values obtained from this experiment for the inhibition of binding of NGF to P75 and TrkA by compounds of Formula I.
For orientation: % Inhibition means the relative decrease from the control value, in per cent. A higher % Inhibition goes with a response far below the control. Take “3-Amino-7,4-bis(ethyl-1,3-dioxo-1,2,3,4-tetrahydrobenzo[i]isoquinoline”: the “% Inhibition at 100 uM” value is given as 23%. Same read-out and setting: in the case of “3-Methyl-3-(1,3-dioxo-5-nitro(1H,3H)benz[de]isoquinolyl)butyric acid methylester” it was 17%. The same measure, in the same setting: in the case of `Cc1ccc(S(=O)(=O)Nc2cc(C)c(C)cc2N2C(=O)CC3C=CC=C4C=CC=CC43C2=O)cc1` (stereo not drawn) [1,3-Dioxo-2-[4,5-dimethyl-2-(4-methylphenylsulphonamido)phenyl]-1,2,3,4-tetrahydrobenzo[i]isoquinoline] it was 19%.

Consider `O=C1c2cccc3cc([N+](=O)[O-])cc(c23)C(=O)N1CCc1ccccn1` [1,3-Dioxo-5-nitro-N-(pyrid-2-ylethyl)-1,2,3,4-tetrahydro[i]isoquinoline], for which the “% Inhibition at 100 uM” value was found to be 28%. The same measure, in the same setting: to `O=C1c2cccc3cc([N+](=O)[O-])cc(c23)C(=O)N1CCCN1CCOCC1` [1,3-Dioxo-5-nitro-n-propylmorpholino-1,2,3,4-tetrahydrobenzo[i]isoquinoline] belongs 11%. Same read-out and setting: to `O=C1CC2C=C(Sc3ccccc3)C=C3C=CC=CC32C(=O)N1CCc1ccccn1` (stereo not drawn) [1,3-Dioxo-6-phenylmercapto-N-(pyrid-2-ylethyl)-1,2,3,4-tetrahydro-benzo[i]isoquinoline] belongs 33%; to `O=C1c2cccc3cc([N+](=O)[O-])cc(c23)C(=O)N1CC1CCCO1` (stereo not drawn) [1,3-Dioxo-N-methyltetrahydrofurfur-2-yl-5-nitro-1,2,3,4-tetrahydro[i]isoquinoline], 18%; to `Nc1ccccc1N1C(=O)c2cccc3cccc(c23)C1=O` [2-(2-Aminophenyl)naphthalimide], 20%. On the same count and under the same terms, to `O=C1c2cccc3cccc(c23)C(=O)N1c1ccccc1O` [2-(2-Hydroxyphenyl)naphthalimide] belongs 13%; to `O=C1CC2C=CC=C3C=CC=CC32C(=O)N1c1nc2ccccc2[nH]1` (stereo not drawn) [2-(Benzimidaz-2-yl)-1,3-dioxo-1,2,3,4-tetrahydrobenzo[i]isoquinoline], 23%. For the molecule `Cc1ccc(S(=O)(=O)Nc2cc(Cl)c(Cl)cc2N2C(=O)c3cccc4cccc(c34)C2=O)cc1` [2-[2-(4-Methylbenzsulphonamido)-4,5-dichlorophenyl]naphthalimide], the “% Inhibition at 100 uM” value is given as 26%. On the same count and under the same terms, to `Cc1ccc(S(=O)(=O)Nc2ccccc2N2C(=O)c3cccc4c(N(C)C)ccc(c34)C2=O)cc1` [2-{2-(4-methylphenylsulphonamido)phenyl}-6-(N,N-dimethylamino)-naphthalimide] belongs 29%; to `O=C(O)CCN1C(=O)c2cccc3cc([N+](=O)[O-])cc(c23)C1=O` [3-Nitro-1,8-(N-propioncarboxylate)succinamidonapthalene], 25%. Still for that read-out and setting: in the case of `CCCCN1C(=O)c2cccc3cc(N)cc(c23)C1=O` [5-Amino-N-butylnaphthalimide] it was 13%; in that of `O=C1c2cccc3cc(Br)cc(c23)C(=O)N1Cc1cccnc1` [5-Bromo-1,3-dioxo-N-methylpyrid-3-yl-1,2,3,4-tetrahydrobenzo[i]isoquinoline], 28%. The same measure, in the same setting: in the case of `CN(C)c1ccc2c3c(cccc13)C(=O)N(c1nc3ccccc3[nH]1)C2=O` [6-(N,N-Dimethylamino)-2-(benzimidazol-2-yl)naphthalimide] it was 36%; in that of `O=C1c2cccc3c([N+](=O)[O-])ccc(c23)C(=O)N1Cc1ccco1` [6-Nitro-2-(furfuryl)naphthalimide], 17%. As for `O=C1c2cccc3c([N+](=O)[O-])ccc(c23)C(=O)N1CCc1ccccn1` [6-Nitro-2-(pyrid-2-ylethyl)naphthalimide], the “% Inhibition at 100 uM” value worked out at 11%. Still for that read-out and setting: to `O=C1c2cccc3c([N+](=O)[O-])ccc(c23)C(=O)N1Cc1cccnc1` [6-Nitro-2-(pyrid-3-methyl)naphthalimide] belongs 23%; to `O=C1c2cccc3c([N+](=O)[O-])ccc(c23)C(=O)N1CC1CCCO1` (stereo not drawn) [6-Nitro-2-(tetrahydrofuran-2-ylmethyl)naphthalimide], 28%. Still for that read-out and setting: in the case of `CCOC(=O)CN1C(=O)c2cccc3cc([N+](=O)[O-])cc(c23)C1=O` [Ethyl-5-nitro-1,3-dioxo-1H-benz[de]isoquinoline-2-3H-acetate] it was 16%; in that of `O=C1c2cccc3cccc(c23)C(=O)N1CCO` [N-(1,3-Dioxo-1,2,3,4-tetrahydrobenzo[i]isoquinoline)aminoethanol], 27%; in that of `O=C1c2cccc3cc([N+](=O)[O-])cc(c23)C(=O)N1CCO` [N-(1,3-Dioxo-5-nitro-1,2,3,4-tetrahydrobenzo[i]isoquinoline)-aminoethanol], 44%. Take `O=C(O)CN1C(=O)c2cccc3cc([N+](=O)[O-])cc(c23)C1=O` [N-(1,3-Dioxo-5-nitro-1,2,3,4-tetrahydrobenzo[i]isoquinoline)acetic acid]: the “% Inhibition at 100 uM” value was found to be 58%. On the same count and under the same terms, to `O=C1c2cccc3c(Sc4ccccc4)ccc(c23)C(=O)N1CCO` [N-(1,3-Dioxo-6-phenylmercapto-1,2,3,4-tetrahydrobenzo[i]isoquinoline)aminoethanol] belongs 3%; to `Cc1cc(C)cc(N2C(=O)c3cccc4cccc(c34)C2=O)c1` [N-(3,5-Dimethylphenyl)-1,8-naphthalimide], 9%; to `CCOc1ccc(N2C(=O)c3cccc4cc([N+](=O)[O-])cc(c34)C2=O)cc1` [N-(4-Ethoxyphenyl)-5-nitronaphthalimide], 18%. On the same count and under the same terms, in the case of `O=C1c2cccc3cccc(c23)C(=O)N1CCc1ccccn1` [N-(Pyrid-2-ylethyl)-1,8-naphthalimide] it was 35%; in that of `O=C1c2cccc3cccc(c23)C(=O)N1Cc1ccccn1` [N-(Pyrid-2-ylmethyl)naphthalimide], 10%; in that of `O=C1c2cccc3cccc(c23)C(=O)N1Nc1ccccc1` [N-Anilino-1,8-naphthalimide], 1%. For `O=C1c2cccc3cccc(c23)C(=O)N1Cc1ccco1` [N-Furfuryl-1,8-naphthalimide], the “% Inhibition at 100 uM” value was found to be 36%. The same measure, in the same setting: in the case of `CN1C(=O)c2cccc3cccc(c23)C1=O` [N-Methylnaphthalimide] it was 11%. The same measure, in the same setting: in the case of `CCCCCCCCN1C(=O)c2cccc3cc([N+](=O)[O-])cc(c23)C1=O` [N-Octyl-5-nitronaphthalimide] it was 29%; in that of `NN1C(=O)c2cccc3cccc(c23)C1=O` [Naphthalicacid-N-aminoimide], 27%.

Turning to Naphthalicacid-N,N′-diimide, the “% Inhibition at 100 uM” value came to 13%.

A further experiment deals with L5/L6 Nerve Ligated rats. Briefly: Tactile allodynia, nerve ligation injury model (von Frey paw withdrawal threshold). To be noted: i.p.
As for `CN1CC[C@]23c4c5ccc(O)c4O[C@H]2[C@@H](O)C=C[C@H]3[C@H]1C5` [Morphine, morphine, reference compound], the “A50(95% C.L.) Allodynia- Ligated” value is reported as 7.1 mg/kg.

Staying with this experiment, now noted: i.th.
Turning to `CN1CC[C@]23c4c5ccc(O)c4O[C@H]2[C@@H](O)C=C[C@H]3[C@H]1C5` [Morphine, morphine, reference compound], the “A50(95% C.L.) Allodynia- Ligated” value is greater than 100 µg.

The subject of another experiment is L5/L6 Nerve Ligated and Sham-Operated Rats.
Assay: not given
To be noted: i.th; L5/L6 nerve ligated rats.
In the case of `CN1CC[C@]23c4c5ccc(O)c4O[C@H]2[C@@H](O)C=C[C@H]3[C@H]1C5` [Morphine, morphine, reference compound], the “A50(95% C.L.) Tail Flick- Ligated” value came out at 2.3 µg.

The same experiment, now with this note: i.th; sham-operated rats.
With `CN1CC[C@]23c4c5ccc(O)c4O[C@H]2[C@@H](O)C=C[C@H]3[C@H]1C5` [Morphine, morphine, reference compound], the “A50(95% C.L.) Tail Flick- Sham” value amounted to 1.45 µg.
